Assay results from US6689609B1, “Enhancing germination of plant somatic embryos by priming” (Cellfor Inc., priority 1999, dated 2004).
Read-outs that look alike come from different tables or passages of the source.

Legend:
[1] = test system: interior spruce somatic embryos; assay: Ascorbic acid in nutripriming solution and germination media: germination and growth of interior spruce genotype 4-2809 somatic embryos; assay type: in vivo, Picea glauca (Moench) Voss x P. engelmannii Parry ex Engelm.
Protocol: Mature somatic embryos of interior spruce (Picea glauca (Moench) Voss x P. engelmannii Parry ex […].) genotype 4-2809 were desiccated with the HRHT treatment, and then nutriprimed in 3% w/v sucrose m24GMD solutions for 3 days as previously described. The nutripriming solutions were formulated with one of the following three ascorbic acid treatments; 0, 10 uM, 100 uM. The nutriprimed somatic embryos were then sown into germination boxes containing 150 ml vermiculite plus 120 ml of 3% w/v sucrose m24GMD liquid medium. […] Nutriprimed embryos from each ascorbic acid nutripriming treatment were then sown into triplicate boxes of each ascorbic acid-amended germination medium. After sowing, the germination boxes were sealed twice with ParafilmTM. Embryos were germinated and grown for two weeks under 50-70 μmol m^-2s^-1 photosynthetic photon flux of 16-hour photoperiod at an air temperature of 22° C. Then, the germinants were harvested, and measured.

[2] = test system: interior spruce somatic embryos; assay type: in vivo, Picea glauca (Moench) Voss x P. engelmannii Parry ex Engelm.; settings: for % with hyperhydricity: in vivo
Source text: The second study assessed the effects adding various osmotica to nutripriming solutions on subsequent germination and development performance. Mature somatic embryos of interior spruce (Picea glauca (Moench) Voss x P. engelmannii Parry ex Engelm.) genotype 23-2672 were desiccated with the HRHT treatment, and then divided into 10 groups of 160 somatic embryos per group. One group was not primed and served as the HRHT control treatment for this study. […] The nutripriming solutions and embryos were placed into 250-ml Kimax® baffled flasks. The nutripriming duration was 72 hrs at temperatures ranging between 20-23° C., and a 24-hr photoperiod of 30 μmol m^−2s^−1 photosynthetic photon flux.
At the completion of the nutripriming step, the nutriprimed embryos from each treatment were divided into 8 groups of 20 embryos and sown by hand onto vermiculite media in Sigma polycarbonate boxes. The liquid media in these germination boxes were either 3% w/v sucrose m24GMD or m24GMD without sucrose. The experiment design was a random complete block design for each media type. Each nutripriming treatment had 4 replicates of 20 embryos in each germination media type. The germination boxes were placed in a germination room and grown for two weeks under 50-70 μmol m^−2s^−1 photosynthetic photon flux of 16-hour photoperiod at an air temperature of 23° C. The germinants were then harvested and assessed for germination rates, hyperhydricity rates, shoot and root length. Germination was defined as germinants having a root longer than 2 mm, and elongated hypercotyl. Hyperhydricity was defined by the thickening of hypercotyl and watery appearance of the germinants, whether germinated or not germinated.

[3] = AA 0 μM in germination media, 10 μM in priming solution
[4] = AA 0 μM in germination media, 100 μM in priming solution
[5] = AA 1 μM in germination media, 0 μM in priming solution
[6] = AA 1 μM in germination media, 10 μM in priming solution
[7] = AA 1 μM in germination media, 100 μM in priming solution
[8] = AA 10 μM in germination media, 0 μM in priming solution
[9] = AA 10 μM in germination media, 10 μM in priming solution
[10] = AA 10 μM in germination media, 100 μM in priming solution
[11] = AA 100 μM in germination media, 0 μM in priming solution
[12] = AA 100 μM in germination media, 10 μM in priming solution
[13] = AA 100 μM in germination media, 100 μM in priming solution
[14] = AA 1000 μM in germination media, 0 μM in priming solution
[15] = AA 1000 μM in germination media, 10 μM in priming solution
[16] = AA 1000 μM in germination media, 100 μM in priming solution
[17] = germination media m24GMD (without sucrose), osmoticant levels as E220
[18] = germination media m24GMD plus 3% sucrose, osmoticant in m24GMD priming solution (w/v): 1% betaine, 1.65% fructose, glucose, mannitol, sorbitol, 3% lactose, maltose, sucrose, 10% PEG 4000, 72 hrs
[19] = germination media m24GMD plus 3% sucrose, osmoticant levels as E220

O=C1O[C@H]([C@@H](O)CO)C(O)=C1O [AA, Ascorbic acid] was tested, and the Germination % [1, 3] was 100.0 ± 0.0%, the Root length [1, 3] was 2.59 ± 0.26 cm and the Rooting % [1, 3] was 86.7 ± 3.3%. The Shoot length [1, 3] was 1.86 ± 0.10 cm, the Germination % [1, 4] was 100.0 ± 0.0% and the Root length [1, 4] was 3.56 ± 0.37 cm. For the same molecule, the Rooting % [1, 4] was 96.7 ± 3.3%, the Shoot length [1, 4] was 2.07 ± 0.11 cm and the Germination % [1, 5] was 96.7 ± 3.3%. It also gave a Root length [1, 5] of 1.90 ± 0.23 cm, a Rooting % [1, 5] of 85.8 ± 3.0% and a Shoot length [1, 5] of 1.68 ± 0.10 cm. For the same molecule, the Germination % [1, 6] was 100.0 ± 0.0%, the Root length [1, 6] was 2.07 ± 0.22 cm and the Rooting % [1, 6] was 86.7 ± 8.8%. It also gave a Shoot length [1, 6] of 1.83 ± 0.11 cm, a Germination % [1, 7] of 100.0 ± 0.0% and a Rooting % [1, 7] of 90.0 ± 0.0%. It also gave a Shoot length [1, 7] of 1.79 ± 0.09 cm, a Germination % [1, 8] of 97.5 ± 2.5% and a Root length [1, 8] of 2.46 ± 0.30 cm. The Rooting % [1, 8] was 87.5 ± 6.3%, the Shoot length [1, 8] was 1.84 ± 0.09 cm and the Germination % [1, 9] was 96.7 ± 3.3%. For the same molecule, the Root length [1, 9] was 2.82 ± 0.36 cm, the Rooting % [1, 9] was 86.7 ± 3.3% and the Shoot length [1, 9] was 1.97 ± 0.19 cm. For the same molecule, the Germination % [1, 10] was 100.0 ± 0.0%, the Root length [1, 10] was 3.24 ± 0.32 cm and the Rooting % [1, 10] was 96.7 ± 3.3%. The Shoot length [1, 10] was 2.33 ± 0.11 cm, the Germination % [1, 11] was 93.3 ± 3.3% and the Root length [1, 11] was 2.50 ± 0.33 cm. For the same molecule, the Rooting % [1, 11] was 63.3 ± 8.8%, the Shoot length [1, 11] was 1.81 ± 0.09 cm and the Germination % [1, 12] was 100.0 ± 0.0%. The Root length [1, 12] was 3.18 ± 0.42 cm, the Rooting % [1, 12] was 78.2% and the Shoot length [1, 12] was 2.02 ± 0.11 cm. For the same molecule, the Germination % [1, 13] was 100.0 ± 0.0%, the Root length [1, 13] was 3.61 ± 0.39 cm and the Rooting % [1, 13] was 73.0%. It also gave a Shoot length [1, 13] of 2.12 ± 0.11 cm, a Germination % [1, 14] of 100.0 ± 0.0% and a Root length [1, 14] of 2.11 ± 0.25 cm. The Rooting % [1, 14] was 90.0 ± 0.0%, the Shoot length [1, 14] was 1.79 ± 0.14 cm and the Germination % [1, 15] was 100.0 ± 0.0%. For the same molecule, the Root length [1, 15] was 2.55 ± 0.20 cm, the Rooting % [1, 15] was 95.0 ± 5.0% and the Shoot length [1, 15] was 2.00 ± 0.09 cm. It also gave a Germination % [1, 16] of 100.0 ± 0.0%, a Root length [1, 16] of 2.19 ± 0.26 cm and a Rooting % [1, 16] of 90.0 ± 5.8%. It also gave a Shoot length [1, 16] of 1.75 ± 0.15 cm.

In the case of C[N+](C)(C)CC(=O)O [betaine], the Germination % [2, 17] is reported as 45.0 ± 26.3%, the Root length [2, 17] is reported as 0.4 ± 0.2 mm and the Shoot length [2, 17] is reported as 11.2 ± 0.3 mm. For the same molecule, the Germination % [2, 18] was 100%, the Root length [2, 19] was 12.2 ± 0.8 mm and the Shoot length [2, 19] was 14.2 ± 0.3 mm. The “% with hyperhydricity” value [2] was 76.3 ± 19.1%.

Work on O=C(CO)[C@@H](O)[C@H](O)[C@H](O)CO [fructose] yielded a Germination % [2, 17] of 87.5 ± 7.8%, a Root length [2, 17] of 2.1 ± 0.1 mm and a Shoot length [2, 17] of 10.0 ± 0.3 mm. For the same molecule, the Germination % [2, 18] was 100%, the Root length [2, 19] was 12.2 ± 0.8 mm and the Shoot length [2, 19] was 13.5 ± 0.3 mm. For the same molecule, the “% with hyperhydricity” value [2] was 86.3 ± 9.4%.

Molecule OC[C@H]1O[C@@H](O[C@H]2[C@H](O)[C@@H](O)C(O)O[C@@H]2CO)[C@H](O)[C@@H](O)[C@H]1O (some centres unmarked) [lactose] has a Germination % [2, 17] of 27.6 ± 24.3%, a Root length [2, 17] of 0.3 ± 0.1 mm and a Shoot length [2, 17] of 11.5 ± 0.2 mm. The Germination % [2, 18] was 100%, the Root length [2, 19] was 12.4 ± 0.8 mm and the Shoot length [2, 19] was 15.5 ± 0.3 mm. For the same molecule, the “% with hyperhydricity” value [2] was 100%.

OC[C@H]1O[C@H](O[C@H]2[C@H](O)[C@@H](O)[C@H](O)O[C@@H]2CO)[C@H](O)[C@@H](O)[C@@H]1O [maltose] showed a Germination % [2, 17] of 0%, a Root length [2, 17] of 0.8 ± 0.1 mm and a Shoot length [2, 17] of 11.2 ± 0.3 mm. It also gave a Germination % [2, 18] of 98.8%, a Root length [2, 19] of 11.5 ± 0.8 mm and a Shoot length [2, 19] of 14.2 ± 0.3 mm. The “% with hyperhydricity” value [2] was 100%.

Molecule OC[C@@H](O)[C@@H](O)[C@H](O)[C@H](O)CO [mannitol] has a Germination % [2, 17] of 24.6 ± 12.7%, a Root length [2, 17] of 0.3 ± 0.1 mm and a Shoot length [2, 17] of 10.0 ± 0.3 mm. For the same molecule, the Germination % [2, 18] was 100%, the Root length [2, 19] was 12.0 ± 0.5 mm and the Shoot length [2, 19] was 13.6 ± 0.3 mm. The “% with hyperhydricity” value [2] was 93.5 ± 5.0%.

With OC[C@@H](O)[C@@H](O)[C@H](O)[C@@H](O)CO [sorbitol] the Germination % [2, 17] was 5.0 ± 5.0%, the Root length [2, 17] was 0.4 ± 0.1 mm and the Shoot length [2, 17] was 10.7 ± 0.3 mm. It also gave a Germination % [2, 18] of 100%, a Root length [2, 19] of 15.5 ± 1.0 mm and a Shoot length [2, 19] of 14.5 ± 0.4 mm. The “% with hyperhydricity” value [2] was 92.6 ± 6.0%.

For “polyethylene glycol (PEG) 4000 [PEG 4000]”, the “% with hyperhydricity” value [2] was 97.5 ± 4.3%.
